Data on eight compounds can be found in ChEMBL document CHEMBL1201862, “PubChem BioAssay data set” (2004).

Each structure is given as a SMILES string. Active and inactive are the calls of the source. Bounds are passed on as bounds.

The target of assay [1] is Delta-type opioid receptor (Homo sapiens, UniProt P41143). Briefly: Counterscreen for agonists of heterodimerization of the mu 1 (OPRM1) and delta 1 (OPRD1) opioid receptors: Luminescence-based cell-based high throughput dose response assay to identify agonists of OPRD1 homodimerization. [Related pubchem assays (depositor defined):AID504326, AID504355, AID504692, AID504904, AID504905]. The assay is classed as functional.

Assay [2] has as its target Mu-type opioid receptor (Homo sapiens, UniProt P35372). Kind of assay: Counterscreen for agonists of heterodimerization of the mu 1 (OPRM1) and delta 1 (OPRD1) opioid receptors: Luminescence-based cell-based high throughput dose response assay to identify agonists of OPRM1 homodimerization. The assay is classed as functional. (Counterscreens check selectivity or assay interference.);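 also: U2OS cells expressing OPRM1 and beta-arrestin as split beta-galactosidase partners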

Assay [3] has as its target 5-hydroxytryptamine receptor 5A (Homo sapiens, UniProt P47898). Briefly: Counterscreen for agonists of OPRM1-OPRD1 heterodimerization: luminescence-based cell-based high throughput dose response assay to identify agonists of 5-hydroxytryptamine (serotonin) 5A receptor (HTR5A). [Related pubchem assays (depositor defined):AID504326, AID504355, AID504692, AID504904, AID504905]. The assay is classed as functional.

For assay [4], the target named is T1, E3 ubiquitin-protein ligase XIAP (Homo sapiens, UniProt P98170). Briefly: Counter Screen using XIAP-Bir3 for Chemical Antagonists of Bir1/2 domains of IAP-family anti-apoptotic proteins. [Related pubchem assays (depositor defined):AID1018, AID1449, AID1514, AID1638, AID1749, AID1750, AID488957, AID488963].
Assay [5] addresses T1, E3 ubiquitin-protein ligase XIAP. Briefly: small molecules displacing peptide from XIAP – biochemical, IAP family, fluorescence polarization (AID 1018). The format is functional. Background: In fluorescence polarisation assays a small probe gives low polarisation when free and higher when bound to something large.
Assay [6] in a line: viability of uninfected HEp-2 cells – cell-based, HTS, cytotoxicity control for RSV inhibitor project, dose response (AID 2410). The format is functional. The following applies: human respiratory syncytial virus.
Assay [7] has as its target DNA dC->dU-editing enzyme APOBEC-3A (Homo sapiens, UniProt P31941). Briefly: A3A deaminase inhibition for selectivity – biochemical, dose response (AID 504722). The assay is classed as functional.
The target in assay [8] is Glucose-6-phosphate 1-dehydrogenase (Homo sapiens, UniProt P11413). Briefly: inhibition of Homo sapiens G6PD, dose series – biochemical, fluorescence, selectivity assay for P. falciparum G6PD inhibitor project, dose response (AID 504792). The assay is classed as functional.
Assay [9] concerns the target T2, Hexokinase HKDC1 (Homo sapiens, UniProt Q2TB90).
T2 sequence (Q2TB90 whole entry): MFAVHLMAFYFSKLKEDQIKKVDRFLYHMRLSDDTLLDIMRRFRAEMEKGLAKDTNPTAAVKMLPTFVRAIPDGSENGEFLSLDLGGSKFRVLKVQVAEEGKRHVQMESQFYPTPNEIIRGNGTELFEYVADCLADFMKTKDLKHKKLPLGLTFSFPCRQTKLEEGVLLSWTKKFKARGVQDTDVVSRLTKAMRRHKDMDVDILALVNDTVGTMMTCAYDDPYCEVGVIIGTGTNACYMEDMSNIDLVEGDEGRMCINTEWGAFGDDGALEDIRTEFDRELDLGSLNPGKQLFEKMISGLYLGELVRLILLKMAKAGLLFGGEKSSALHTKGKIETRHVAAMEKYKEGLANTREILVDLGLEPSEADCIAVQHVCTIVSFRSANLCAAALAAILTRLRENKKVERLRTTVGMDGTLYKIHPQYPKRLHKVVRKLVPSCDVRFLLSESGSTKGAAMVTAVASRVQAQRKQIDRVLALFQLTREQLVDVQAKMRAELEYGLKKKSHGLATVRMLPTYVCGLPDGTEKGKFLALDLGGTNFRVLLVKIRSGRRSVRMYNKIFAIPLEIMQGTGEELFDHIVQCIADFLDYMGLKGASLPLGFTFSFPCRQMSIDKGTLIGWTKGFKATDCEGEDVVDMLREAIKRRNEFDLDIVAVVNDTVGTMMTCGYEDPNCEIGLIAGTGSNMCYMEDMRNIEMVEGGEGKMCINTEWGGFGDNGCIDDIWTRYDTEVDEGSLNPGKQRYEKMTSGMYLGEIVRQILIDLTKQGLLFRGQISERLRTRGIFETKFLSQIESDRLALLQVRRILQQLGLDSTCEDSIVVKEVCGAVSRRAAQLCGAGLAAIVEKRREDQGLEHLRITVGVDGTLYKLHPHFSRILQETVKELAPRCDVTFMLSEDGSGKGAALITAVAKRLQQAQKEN
Kind of assay: activation of HKDC1 glucose phosphorylation – biochemical, W721R variant, dose response (AID 504730). The assay is classed as functional.

Assay [10] addresses DNA dC->dU-editing enzyme APOBEC-3G (Homo sapiens, UniProt Q9HC16). Briefly: Dose Response confirmation of small molecule APOBEC3G DNA Deaminase Inhibitors via a fluorescence-based single-stranded DNA deaminase assay. [Related pubchem assays (depositor defined):AID493012, AID493028]. The format is functional.
Assay [11] addresses T3, Hexokinase-1 (Homo sapiens, UniProt P19367).
T3 sequence (P19367 whole entry): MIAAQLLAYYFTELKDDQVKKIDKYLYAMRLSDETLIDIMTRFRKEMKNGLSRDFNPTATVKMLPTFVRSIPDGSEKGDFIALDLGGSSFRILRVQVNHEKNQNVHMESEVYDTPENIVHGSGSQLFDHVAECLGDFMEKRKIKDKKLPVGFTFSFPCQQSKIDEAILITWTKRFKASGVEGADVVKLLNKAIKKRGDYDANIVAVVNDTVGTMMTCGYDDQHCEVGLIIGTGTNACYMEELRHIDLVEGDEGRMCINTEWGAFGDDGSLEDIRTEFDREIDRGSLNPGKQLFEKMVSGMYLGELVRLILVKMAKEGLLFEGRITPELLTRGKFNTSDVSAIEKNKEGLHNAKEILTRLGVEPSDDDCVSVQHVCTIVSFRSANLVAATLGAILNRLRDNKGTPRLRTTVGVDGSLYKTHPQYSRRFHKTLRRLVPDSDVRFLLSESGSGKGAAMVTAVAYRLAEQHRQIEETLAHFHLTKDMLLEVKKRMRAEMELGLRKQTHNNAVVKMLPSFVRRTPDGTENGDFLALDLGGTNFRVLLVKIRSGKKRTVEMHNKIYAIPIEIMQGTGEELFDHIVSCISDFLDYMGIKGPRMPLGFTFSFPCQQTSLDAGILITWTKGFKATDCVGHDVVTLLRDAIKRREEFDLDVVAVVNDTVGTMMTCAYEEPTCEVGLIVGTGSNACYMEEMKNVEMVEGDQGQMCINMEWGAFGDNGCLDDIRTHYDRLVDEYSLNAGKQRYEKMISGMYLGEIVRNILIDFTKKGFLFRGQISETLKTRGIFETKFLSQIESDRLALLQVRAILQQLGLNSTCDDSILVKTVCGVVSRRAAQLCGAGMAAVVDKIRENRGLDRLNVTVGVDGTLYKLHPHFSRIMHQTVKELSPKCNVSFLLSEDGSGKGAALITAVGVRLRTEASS
Kind of assay: HK1 enzyme activation by HKDC1 hits – biochemical, selectivity assay for HKDC1 activator project, dose response (AID 504762). The assay is classed as functional.

Assay [12] concerns the target G-protein coupled receptor 55 (Homo sapiens, UniProt Q9Y2T6). Kind of assay: selective activators of receptor GPR55 – imaging, U2OS cells, beta-arrestin-GFP redistribution, primary screen (AID 1961). The format is functional.
The target of assay [13] is C-C chemokine receptor type 6 (Homo sapiens, UniProt P51684). Briefly: antagonism of CCR6 beta-arrestin recruitment – cell-based, luminescent beta-arrestin readout, dose response (AID 504728). The assay is classed as functional. (Arrestin recruitment assays detect the binding of arrestin to an activated receptor.)
The target in assay [14] is T4, CAAX prenyl protease 2 (Saccharomyces cerevisiae S288c, UniProt Q03530).
T4 sequence (Q03530 whole entry): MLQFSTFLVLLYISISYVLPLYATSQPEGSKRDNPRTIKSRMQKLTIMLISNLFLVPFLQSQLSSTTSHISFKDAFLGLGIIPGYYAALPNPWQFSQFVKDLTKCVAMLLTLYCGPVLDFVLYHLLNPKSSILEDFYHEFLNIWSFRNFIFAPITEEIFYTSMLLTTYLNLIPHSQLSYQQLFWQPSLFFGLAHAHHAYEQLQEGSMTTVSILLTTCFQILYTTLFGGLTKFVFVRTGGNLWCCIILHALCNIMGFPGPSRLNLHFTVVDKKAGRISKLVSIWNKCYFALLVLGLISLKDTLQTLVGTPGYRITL
The assay is classed as biochemical.

For assay [15], the target named is Beta-galactosidase (Escherichia coli, UniProt Q8VNN2). Briefly: detection-enzyme interference by beta-gal modulators – biochemical, E. coli enzyme, set 3, artefact control for CCR6 antagonist project, dose response (AID 504712). The format is functional.
The target of assay [16] is T5, CAAX prenyl protease 1 (Saccharomyces cerevisiae S288c, UniProt P47154).
T5 sequence (P47154 whole entry): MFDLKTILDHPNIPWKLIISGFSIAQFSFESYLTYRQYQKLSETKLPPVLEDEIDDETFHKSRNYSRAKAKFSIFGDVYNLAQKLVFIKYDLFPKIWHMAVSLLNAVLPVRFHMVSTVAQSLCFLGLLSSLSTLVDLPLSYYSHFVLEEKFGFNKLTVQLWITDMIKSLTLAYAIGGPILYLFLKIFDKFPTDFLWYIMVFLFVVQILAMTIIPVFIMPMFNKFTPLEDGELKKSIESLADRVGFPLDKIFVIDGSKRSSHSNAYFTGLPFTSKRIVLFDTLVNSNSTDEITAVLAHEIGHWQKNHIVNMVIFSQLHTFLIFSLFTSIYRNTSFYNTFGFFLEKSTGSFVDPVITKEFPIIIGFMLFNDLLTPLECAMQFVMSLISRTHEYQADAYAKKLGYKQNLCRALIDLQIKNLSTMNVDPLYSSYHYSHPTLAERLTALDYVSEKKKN
Briefly: yeast CAAX protease Ste24 inhibition – biochemical, S. cerevisiae, plate reader, cherry-pick, dose response (AID 488815).

Assay [17] concerns the target T6, Mannose-6-phosphate isomerase (Homo sapiens, UniProt P34949).
T6 sequence (P34949 whole entry): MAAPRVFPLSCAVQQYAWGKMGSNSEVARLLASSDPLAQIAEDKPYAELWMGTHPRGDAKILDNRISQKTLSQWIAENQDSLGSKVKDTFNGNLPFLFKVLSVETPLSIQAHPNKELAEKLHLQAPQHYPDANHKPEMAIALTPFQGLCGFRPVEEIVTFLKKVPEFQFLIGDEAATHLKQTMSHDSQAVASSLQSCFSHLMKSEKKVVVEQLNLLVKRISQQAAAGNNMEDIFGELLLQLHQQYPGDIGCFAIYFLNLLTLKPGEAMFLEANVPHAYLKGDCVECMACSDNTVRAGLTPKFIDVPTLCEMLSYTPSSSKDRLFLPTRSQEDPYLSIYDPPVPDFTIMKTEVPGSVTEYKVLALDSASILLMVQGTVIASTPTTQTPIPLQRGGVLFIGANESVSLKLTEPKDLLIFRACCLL
Kind of assay: phosphomannose isomerase inhibition – biochemical, fluorescence intensity, confirmation (AID 1535).

The target in assay [18] is Phosphomannomutase 2 (Homo sapiens, UniProt O15305). Briefly: Counter screen SAR assay for PMM2 inhibitors via a fluorescence intensity assay. [Related pubchem assays (depositor defined):AID1545, AID1574].
Assay [19] addresses Phosphoethanolamine/phosphocholine phosphatase (Homo sapiens, UniProt Q8TCT1). Briefly: SAR assay for compounds that inhibit PHOSPHO1. [Related pubchem assays (depositor defined):AID1545, AID1565, AID1574].
Assay [20] is described as follows: decrease of insulin promoter-GFP reporter – imaging, high-content screening, mouse beta cells (AID 1628). The format is functional. The following applies: MIN6.
A short description of assay [21]: MIN6 cell viability loss – mouse insulinoma, cytotoxicity control, dose response (AID 2122).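 Also: confirmatory high-throughput counterscreen run to flag cytotoxic compounds.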 The assay is classed as functional.
Assay [22] in a line: Luminescence Cell-Based Dose Retest to Confirm Inhibitors of Cancer Stem Cells. [Related pubchem assays (depositor defined):AID2717, AID2721]. The assay is classed as functional. The following applies: Homo sapiens.

T1 sequence (P98170 whole entry): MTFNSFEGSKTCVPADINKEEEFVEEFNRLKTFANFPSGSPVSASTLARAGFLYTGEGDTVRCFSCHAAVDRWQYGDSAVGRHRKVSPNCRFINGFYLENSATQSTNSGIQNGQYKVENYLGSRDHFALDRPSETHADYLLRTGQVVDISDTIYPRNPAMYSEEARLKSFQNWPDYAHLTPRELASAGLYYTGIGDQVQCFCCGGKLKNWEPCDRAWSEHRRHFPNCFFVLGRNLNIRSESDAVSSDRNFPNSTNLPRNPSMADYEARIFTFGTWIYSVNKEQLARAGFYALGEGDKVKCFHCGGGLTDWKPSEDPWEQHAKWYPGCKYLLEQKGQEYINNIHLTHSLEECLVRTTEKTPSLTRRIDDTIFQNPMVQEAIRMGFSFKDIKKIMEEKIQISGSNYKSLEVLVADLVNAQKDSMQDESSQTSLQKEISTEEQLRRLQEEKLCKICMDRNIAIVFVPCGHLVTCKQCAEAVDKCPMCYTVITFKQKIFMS
5-hydroxytryptamine receptor 5A, sequence (P47898 whole entry): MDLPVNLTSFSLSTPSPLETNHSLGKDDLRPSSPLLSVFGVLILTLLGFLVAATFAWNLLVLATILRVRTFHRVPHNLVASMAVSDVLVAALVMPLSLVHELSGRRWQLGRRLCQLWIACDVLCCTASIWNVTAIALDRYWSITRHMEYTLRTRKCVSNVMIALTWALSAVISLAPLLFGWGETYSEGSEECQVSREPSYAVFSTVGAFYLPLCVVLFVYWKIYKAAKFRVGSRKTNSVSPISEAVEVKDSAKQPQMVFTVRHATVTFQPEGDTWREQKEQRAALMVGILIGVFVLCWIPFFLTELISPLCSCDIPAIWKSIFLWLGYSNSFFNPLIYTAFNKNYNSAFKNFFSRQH
DNA dC->dU-editing enzyme APOBEC-3A, sequence (P31941 whole entry): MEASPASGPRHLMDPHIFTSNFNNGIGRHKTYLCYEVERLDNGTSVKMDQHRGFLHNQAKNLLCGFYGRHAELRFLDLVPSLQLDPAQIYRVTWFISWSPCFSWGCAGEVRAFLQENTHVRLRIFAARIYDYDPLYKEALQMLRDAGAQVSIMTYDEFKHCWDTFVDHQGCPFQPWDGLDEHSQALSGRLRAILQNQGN
G-protein coupled receptor 55, sequence (Q9Y2T6 whole entry): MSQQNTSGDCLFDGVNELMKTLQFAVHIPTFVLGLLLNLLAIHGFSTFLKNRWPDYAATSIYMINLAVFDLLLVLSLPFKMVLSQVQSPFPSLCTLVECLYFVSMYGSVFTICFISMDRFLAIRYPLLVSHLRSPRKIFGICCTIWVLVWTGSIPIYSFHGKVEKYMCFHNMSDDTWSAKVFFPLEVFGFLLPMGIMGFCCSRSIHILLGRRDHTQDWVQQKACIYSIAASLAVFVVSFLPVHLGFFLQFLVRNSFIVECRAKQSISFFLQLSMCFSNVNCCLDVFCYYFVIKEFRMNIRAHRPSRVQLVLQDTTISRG
DNA dC->dU-editing enzyme APOBEC-3G, sequence (Q9HC16 whole entry): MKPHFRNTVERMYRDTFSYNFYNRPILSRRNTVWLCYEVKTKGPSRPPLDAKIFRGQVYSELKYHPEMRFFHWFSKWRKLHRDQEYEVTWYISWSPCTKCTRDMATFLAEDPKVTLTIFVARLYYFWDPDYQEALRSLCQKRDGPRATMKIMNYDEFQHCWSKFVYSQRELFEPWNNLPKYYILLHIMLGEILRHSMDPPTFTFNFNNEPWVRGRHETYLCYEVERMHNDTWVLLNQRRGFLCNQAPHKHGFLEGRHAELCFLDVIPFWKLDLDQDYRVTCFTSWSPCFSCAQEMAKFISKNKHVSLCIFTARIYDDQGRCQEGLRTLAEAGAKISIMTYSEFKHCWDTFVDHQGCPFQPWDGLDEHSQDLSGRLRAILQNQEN
Phosphomannomutase 2, sequence (O15305 whole entry): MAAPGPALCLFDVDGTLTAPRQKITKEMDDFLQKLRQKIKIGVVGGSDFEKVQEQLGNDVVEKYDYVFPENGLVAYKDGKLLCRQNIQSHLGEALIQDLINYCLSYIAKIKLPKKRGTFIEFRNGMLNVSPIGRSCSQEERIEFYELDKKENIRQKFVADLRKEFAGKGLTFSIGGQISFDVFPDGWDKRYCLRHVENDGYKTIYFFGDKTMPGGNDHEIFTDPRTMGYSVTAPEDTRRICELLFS
Delta-type opioid receptor, sequence (P41143 whole entry): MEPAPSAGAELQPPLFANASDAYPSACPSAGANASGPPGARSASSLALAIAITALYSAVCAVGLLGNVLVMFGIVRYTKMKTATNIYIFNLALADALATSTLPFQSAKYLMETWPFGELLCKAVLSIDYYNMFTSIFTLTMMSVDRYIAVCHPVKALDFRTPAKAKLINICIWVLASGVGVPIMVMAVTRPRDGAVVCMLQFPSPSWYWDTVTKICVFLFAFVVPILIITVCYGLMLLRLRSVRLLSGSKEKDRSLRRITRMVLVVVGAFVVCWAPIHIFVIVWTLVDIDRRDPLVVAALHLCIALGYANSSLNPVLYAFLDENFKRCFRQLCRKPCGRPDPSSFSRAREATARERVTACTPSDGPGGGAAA
Phosphoethanolamine/phosphocholine phosphatase, sequence (Q8TCT1 whole entry): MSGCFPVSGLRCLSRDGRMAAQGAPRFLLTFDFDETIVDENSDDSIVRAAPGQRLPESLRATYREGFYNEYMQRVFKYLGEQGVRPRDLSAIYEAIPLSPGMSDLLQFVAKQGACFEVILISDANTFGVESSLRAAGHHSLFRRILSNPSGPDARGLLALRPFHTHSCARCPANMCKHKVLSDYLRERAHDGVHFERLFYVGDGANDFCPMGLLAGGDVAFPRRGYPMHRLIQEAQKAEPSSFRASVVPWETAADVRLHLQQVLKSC
C-C chemokine receptor type 6, sequence (P51684 whole entry): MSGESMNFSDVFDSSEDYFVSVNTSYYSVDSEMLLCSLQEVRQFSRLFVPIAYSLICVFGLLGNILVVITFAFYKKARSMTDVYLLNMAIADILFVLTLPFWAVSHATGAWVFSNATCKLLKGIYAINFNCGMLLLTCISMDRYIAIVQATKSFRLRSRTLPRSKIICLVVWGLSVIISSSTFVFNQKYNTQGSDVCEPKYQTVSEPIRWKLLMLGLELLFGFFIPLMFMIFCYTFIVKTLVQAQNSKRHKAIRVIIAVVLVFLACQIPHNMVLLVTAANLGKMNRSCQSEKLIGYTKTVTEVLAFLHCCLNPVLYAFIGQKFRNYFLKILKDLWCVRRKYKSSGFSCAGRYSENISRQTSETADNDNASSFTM
Mu-type opioid receptor, sequence (P35372 whole entry): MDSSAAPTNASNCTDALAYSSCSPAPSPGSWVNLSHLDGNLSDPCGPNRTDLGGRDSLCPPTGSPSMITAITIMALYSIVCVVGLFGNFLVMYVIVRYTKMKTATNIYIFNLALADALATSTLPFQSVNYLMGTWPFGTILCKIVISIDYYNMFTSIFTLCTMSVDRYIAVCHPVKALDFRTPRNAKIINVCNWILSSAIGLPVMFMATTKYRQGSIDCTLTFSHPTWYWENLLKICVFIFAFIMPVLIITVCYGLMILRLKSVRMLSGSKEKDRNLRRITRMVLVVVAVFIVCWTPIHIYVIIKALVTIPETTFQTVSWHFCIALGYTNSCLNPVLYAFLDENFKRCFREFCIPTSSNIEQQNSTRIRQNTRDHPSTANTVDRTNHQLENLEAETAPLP
Beta-galactosidase, sequence (Q8VNN2 whole entry): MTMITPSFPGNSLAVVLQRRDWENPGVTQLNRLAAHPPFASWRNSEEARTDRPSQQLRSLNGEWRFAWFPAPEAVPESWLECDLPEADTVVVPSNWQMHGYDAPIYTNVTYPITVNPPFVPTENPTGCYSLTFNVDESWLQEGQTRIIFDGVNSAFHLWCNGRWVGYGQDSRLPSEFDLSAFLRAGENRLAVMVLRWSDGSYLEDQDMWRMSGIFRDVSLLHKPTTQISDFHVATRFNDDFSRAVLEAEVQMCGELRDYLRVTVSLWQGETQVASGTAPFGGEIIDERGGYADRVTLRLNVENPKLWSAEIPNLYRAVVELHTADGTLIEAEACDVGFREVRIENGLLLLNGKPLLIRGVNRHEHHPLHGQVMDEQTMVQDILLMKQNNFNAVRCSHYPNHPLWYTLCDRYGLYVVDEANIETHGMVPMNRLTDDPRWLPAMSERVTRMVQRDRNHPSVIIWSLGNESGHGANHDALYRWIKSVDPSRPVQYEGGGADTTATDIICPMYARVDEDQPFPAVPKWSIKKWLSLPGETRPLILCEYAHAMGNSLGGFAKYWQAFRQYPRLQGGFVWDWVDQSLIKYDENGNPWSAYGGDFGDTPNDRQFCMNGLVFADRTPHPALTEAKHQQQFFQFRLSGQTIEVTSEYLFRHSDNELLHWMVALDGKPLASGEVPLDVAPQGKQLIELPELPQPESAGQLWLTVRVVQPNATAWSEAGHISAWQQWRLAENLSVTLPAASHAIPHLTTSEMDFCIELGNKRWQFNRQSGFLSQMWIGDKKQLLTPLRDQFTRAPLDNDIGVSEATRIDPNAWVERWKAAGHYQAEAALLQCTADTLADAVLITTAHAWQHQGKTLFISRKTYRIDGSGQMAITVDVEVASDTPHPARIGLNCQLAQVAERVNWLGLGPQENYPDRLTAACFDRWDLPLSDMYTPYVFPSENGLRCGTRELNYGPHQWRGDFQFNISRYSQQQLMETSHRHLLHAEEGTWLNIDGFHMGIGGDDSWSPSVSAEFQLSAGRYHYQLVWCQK

Regarding `COC(=O)CCCNC(=O)c1ccc(OC2CCN(CCc3ccccc3)CC2)cc1`, the EC50 in assay [1], in assay [2] and in assay [3] was > 92.5 µM (inactive) each time.
On to `CCCc1nc2oc3cc(OC)ccc3c(=O)c2c(=O)n1Cc1ccco1`, for which the results for the IC50 in assay [4] and in assay [5] were > 100 µM (inactive) and > 100 µM (not active), respectively.
For the compound `Cc1ccc(C(C)NC(=O)/C(C#N)=C\c2c(C)[nH]c3ccccc23)cc1` (centres undefined), in assay [6], the CC50 (in general, the concentration that lowers cell viability or growth by half) was 19.4 µM (active). In addition, the IC50 – broadly, the concentration that gives 50% inhibition – in [4] was > 100 µM (inactive); in assay [5], > 100 µM (not active).
With `CC(NC(=O)c1sc2cc([N+](=O)[O-])ccc2c1Cl)C(C)(C)C` (centres undefined), the IC50 is > 100 µM (inactive) in assay [7], > 80 µM (inactive) in [8] and 18.4 µM (active) in assay [10]. The values for the EC50 in assay [9] and in assay [11] were 23.6 µM (inactive) and 46.8 µM (inactive), respectively.
For `COCCCN=C(S)NNC(=O)c1cccnc1`, in assay [12], the EC50 – broadly, the concentration needed to bring the measured effect to its halfway point – was > 32 µM (inactive).
Consider `N#Cc1c(N2CCN(C(=O)c3ccccc3)CC2)nc(-c2ccccc2)c2c1CCCC2`, for which the IC50 in assay [13] and in [15] was > 66.6 µM (inactive) in each case. Further, the AC50 (in general, the concentration at which the activity in the assay is half-maximal) in assay [14] is 8.3 µM (active); in assay [16] it was 1.6 µM (active).
For `O=c1c2c([N+](=O)[O-])cc([N+](=O)[O-])cc2sn1-c1ccc(F)c(Cl)c1`, the IC50 in [17] is 12 µM (active); in [18], 1.26 µM (active); in assay [19] it was 0.192 µM (active).
Take `COC(=O)c1c(NC(=O)Cc2cccs2)sc2c1CCC(C)C2` (centres undefined): the half-inhibitory concentration (IC50) in assay [20] is 6.23 µM (active); in [21], > 16 µM (inactive). Moreover, the AC50 in assay [22] was 2.78 µM (active).
